The source of these data is US4336257A, “Novel 2-pyridylbenzimidazole compounds” (Merck & Co., Inc., priority 1980, dated 1982).

Assay [1] concerns spontaneously hypertensive (SH) rat. As to the kind of experiment: antihypertensive activity in spontaneously hypertensive (SH) rat. As to conditions: SH rat (footnote 1). It is filed as in vivo. How it is done:
(§1) The xanthine oxidase activity of representative compounds was determined using an in vitro test--the antihypertensive activity was determined by administration of said compounds to a spontaneously hypertensive (SH) or renal hypertensive (RH) rat. The X.O. inhibition is expressed as % inhibition of the enzyme at a present compound concentration of 2×10^-5 M.

The target in assay [2] is T1, xanthine oxidase (Bos taurus, UniProt P80457). As to the kind of experiment: in vitro xanthine oxidase (X.O.) inhibition. It is filed as biochemical. How it is done: The xanthine oxidase activity of representative compounds was determined using an in vitro test--the antihypertensive activity was determined by administration of said compounds to a spontaneously hypertensive (SH) or renal hypertensive (RH) rat. The X.O. inhibition is expressed as % inhibition of the enzyme at a present compound concentration of 2×10^-5 M. | .circle.* using in vitro test as described in J. Med. Chem. 20,

For assay [3], the system named is spontaneously hypertensive (SH) or renal hypertensive (RH) rat. As to the kind of experiment: antihypertensive activity in spontaneously hypertensive (SH) or renal hypertensive (RH) rat, model not specified. In kind it is in vivo. The conditions noted are these: model not marked. On the procedure:
as §1

Assay [4] deals with renal hypertensive (RH) rat. As to the kind of experiment: antihypertensive activity in renal hypertensive (RH) rat. As to conditions: RH rat (footnote 2). In kind it is in vivo. How it is done: as §1
The target of assay [5] is T1, xanthine oxidase. Description: in vitro xanthine oxidase (X.O.) inhibition. As to conditions: Table 2; amount 1.5 × 10^-5 m; read-out: X.O.I. It is filed as biochemical.
The mark [6] stands for this setting: Table 1, compound concentration 2×10^-5 M, read-out: % X.O. Inhibition.
The mark [7] stands for this setting: Table 2, amount 2 × 10^-5 M, read-out: X.O.I.

Read-outs that look alike come from different tables or passages of the source.

T1 sequence (P80457 whole entry): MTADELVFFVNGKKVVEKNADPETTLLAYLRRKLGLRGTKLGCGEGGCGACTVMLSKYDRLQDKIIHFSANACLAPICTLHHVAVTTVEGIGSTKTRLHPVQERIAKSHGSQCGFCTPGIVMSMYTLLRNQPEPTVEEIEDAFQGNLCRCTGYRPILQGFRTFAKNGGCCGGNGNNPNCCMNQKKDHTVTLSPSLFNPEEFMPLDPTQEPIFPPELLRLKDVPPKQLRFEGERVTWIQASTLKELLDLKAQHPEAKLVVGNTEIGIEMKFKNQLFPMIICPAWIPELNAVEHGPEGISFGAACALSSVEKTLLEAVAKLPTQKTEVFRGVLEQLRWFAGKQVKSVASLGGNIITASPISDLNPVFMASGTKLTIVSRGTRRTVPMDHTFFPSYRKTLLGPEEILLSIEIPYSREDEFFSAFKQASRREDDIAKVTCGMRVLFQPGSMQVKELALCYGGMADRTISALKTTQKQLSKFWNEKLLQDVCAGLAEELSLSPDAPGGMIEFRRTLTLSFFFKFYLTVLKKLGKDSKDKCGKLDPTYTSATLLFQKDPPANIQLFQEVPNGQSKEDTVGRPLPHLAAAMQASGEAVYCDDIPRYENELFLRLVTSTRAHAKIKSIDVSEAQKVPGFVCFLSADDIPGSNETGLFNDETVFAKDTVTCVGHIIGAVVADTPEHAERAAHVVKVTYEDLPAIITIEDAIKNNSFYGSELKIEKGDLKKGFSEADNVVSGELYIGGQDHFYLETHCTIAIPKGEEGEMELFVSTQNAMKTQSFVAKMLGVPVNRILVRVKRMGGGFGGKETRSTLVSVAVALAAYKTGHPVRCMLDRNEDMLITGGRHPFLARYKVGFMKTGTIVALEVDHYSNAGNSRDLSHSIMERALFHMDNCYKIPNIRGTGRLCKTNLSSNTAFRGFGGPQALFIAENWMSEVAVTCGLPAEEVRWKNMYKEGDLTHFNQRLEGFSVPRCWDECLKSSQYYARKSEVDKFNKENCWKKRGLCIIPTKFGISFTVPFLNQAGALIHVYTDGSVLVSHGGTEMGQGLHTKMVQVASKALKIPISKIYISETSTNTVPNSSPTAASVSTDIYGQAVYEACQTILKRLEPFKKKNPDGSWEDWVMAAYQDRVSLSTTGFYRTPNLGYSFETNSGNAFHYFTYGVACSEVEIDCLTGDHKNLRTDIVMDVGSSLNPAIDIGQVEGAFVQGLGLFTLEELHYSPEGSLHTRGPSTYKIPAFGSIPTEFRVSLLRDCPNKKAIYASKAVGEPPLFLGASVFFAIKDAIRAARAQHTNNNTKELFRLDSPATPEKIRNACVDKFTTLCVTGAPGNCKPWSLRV

As for `Cc1cnc(-c2ccncc2)[nH]1`, the “A.H. Activity” value in assay [1] is “yes”. In addition, in assay [2] (setting [6]), the inhibition at 20 µM stood at 4%. The like results for `Cc1cnc(-c2cccnc2)[nH]1` were, in that order, “yes” and 0%. The like results for `c1cnc2[nH]c(-c3ccncc3)nc2c1` were, in that order, “yes” and 8%. For `c1cncc(-c2nc3cccnc3[nH]2)c1` the same measures were “yes” and 5%. `c1cc(-c2nc3cnccc3[nH]2)ccn1`: the “A.H. Activity” value in assay [1] is recorded as “yes”. The inhibition at 20 µM in assay [2] (setting [6]) was 62%. In the case of `c1cncc(-c2nc3cnccc3[nH]2)c1`, in assay [3], the “A.H. Activity” value is listed as “no”. In assay [2] (setting [6]), the inhibition at 20 µM amounted to 23%. `Clc1ccc2[nH]c(-c3cccnc3)nc2c1`: the inhibition at 20 µM in assay [2] (setting [7]) is 0%. For the molecule `Clc1ccc2[nH]c(-c3ccncc3)nc2c1` [drawing 6], in assay [4], the “A.H. Activity” value is recorded as “yes”. In assay [2] (setting [6]), the inhibition at 20 µM stood at 11%. Regarding `Clc1cc2nc(-c3ccncc3)[nH]c2cc1Cl` [drawing 7], the “A.H. Activity” value in assay [3] is “no”. The inhibition at 20 µM in assay [2] (setting [6]) was found to be 56%. For `Clc1ccc2[nH]c(-c3ccncc3)nc2c1` [drawing 13], in assay [2] (setting [7]), the inhibition at 20 µM is 11%. Turning to `Clc1cc2nc(-c3ccncc3)[nH]c2cc1Cl` [drawing 14], the inhibition at 15 µM in assay [5] came to 50%.
